# In ChEMBL document CHEMBL4196107, “Antiangiogenic Activity and Chemical Derivatization of the Neurotoxic Acetogenin Annonacin Isolated from Asimina triloba” (J Nat Prod, 2018):
# Activity calls are given as the source filed them. The calls are words filed in the database; no cut-off is given here.
# Key:
# Thoracic aorta [1] = assay: Antiangiogenic activity in Sprague-Dawley rat thoracic aorta ring assessed as inhibition of microvessels outgrowth at 50 uM after 5 days; format: functional
# [2] = Effective permeability of the compound at pH 7.4 by PAMPA-BBB assay
# [3] = Effective permeability of the compound in PBS at 10 uM at pH 7.4 after 16 hrs by PAMPA-BBB assay
# Thoracic aorta [4] = assay: Antiangiogenic activity in Sprague-Dawley rat thoracic aorta ring assessed as inhibition of microvessels outgrowth at 1 uM after 5 days; format: functional, tissue-based
# Thoracic aorta [5] = assay: Antiangiogenic activity in Sprague-Dawley rat thoracic aorta ring assessed as inhibition of microvessels outgrowth after 5 days; format: functional, tissue-based; conditions: 120 h
smiles,measurement,setting,value
CCCCCCCCCCCC[C@@H](N=[N+]=[N-])[C@H]1CC[C@H]([C@@H](CCCC[C@@H](CCCCC[C@H](CC2=C[C@H](C)OC2=O)N=[N+]=[N-])N=[N+]=[N-])N=[N+]=[N-])O1,inhibition,Thoracic aorta [1],inactive
CC(C)NCC(O)COc1cccc2ccccc12 (centres undefined) [PROPRANOLOL],Papp,[2],12 ×10⁻⁶ cm/s
CN(Cc1cnc2nc(N)nc(N)c2n1)c1ccc(C(=O)N[C@@H](CCC(=O)O)C(=O)O)cc1 [METHOTREXATE],Peff,[2],0.037 ×10⁻⁶ cm/s
same,"Papp at 16 h, 10 µM",[3],0.007 ×10⁻⁶ cm/s
CNC(=O)c1cc(Oc2ccc(NC(=O)Nc3ccc(Cl)c(C(F)(F)F)c3)cc2)ccn1,inhibition,Thoracic aorta [4],Active
CO[C@@H]1[C@H](OC(=O)NC(=O)CCl)CC[C@]2(CO2)[C@H]1[C@@]1(C)O[C@@H]1CC=C(C)C,inhibition,Thoracic aorta [1],Active
CCCCCCCCCCCC[C@H](N=[N+]=[N-])[C@H]1CC[C@H]([C@H](CCCC[C@H](CCCCC[C@@H](CC2=C[C@H](C)OC2=O)N=[N+]=[N-])N=[N+]=[N-])N=[N+]=[N-])O1,inhibition at 50 µM,Thoracic aorta [1]; 120 h,40%
CCCCCCCCCCCC[C@@H](O)[C@H]1CC[C@H]([C@H](O)CCCC[C@H](O)CCCCC[C@@H](O)CC2=C[C@H](C)OC2=O)O1,IC50,Thoracic aorta [5],3000 nM
same,"Papp at 16 h, 10 µM",[3],0.51 ×10⁻⁶ cm/s
